Measurements taken from publication PMC9202851, “Antitubercular activity assessment of fluorinated chalcones, 2-aminopyridine-3-carbonitrile and 2-amino-4H-pyran-3-carbonitrile derivatives: In vitro, molecular docking and in-silico drug likeliness studies” (PLoS ONE, 2022).
In brackets after ≈: the same amount, converted by molar mass.

Test system: Mycobacterium tuberculosis H37RV
Experiment: In vitro antitubercular activity by MABA (Alamar Blue)
Format: cell-based
Details: Mycobacterium tuberculosis H37RV, MABA, Middlebrook 7H9 broth, 37°C five days

Row | SMILES | H37RV MIC
1 | N#Cc1c(-c2c[nH]c3ccccc23)cc(-c2ccc(OC(F)(F)F)cc2)nc1N [Compound 40] | ~ 8 µM

Same assay, conditions: Mycobacterium tuberculosis H37RV, MABA, Middlebrook 7H9 broth, 37°C five days; read-out: H37RV MIC

Row | SMILES | MIC
2 | O=C(O)c1cn(C2CC2)c2cc(N3CCNCC3)c(F)cc2c1=O [Ciprofloxacin, reference compound] | 9 µM (≈ 2.98 µg/mL)
3 | N#Cc1c(-c2cccs2)cc(-c2ccc(C(F)(F)F)cc2)nc1N [Compound 26] | 33 µM (≈ 11.4 µg/mL)
4 | N#Cc1c(-c2cccs2)cc(-c2ccc(C(F)(F)F)cc2)nc1N [Compound 27] | 18 µM (≈ 6.22 µg/mL)
5 | N#Cc1c(-c2ccc[nH]2)cc(-c2ccc(C(F)(F)F)cc2)nc1N [Compound 30] | 17 µM (≈ 5.58 µg/mL)
6 | N#Cc1c(-c2c[nH]c3ccccc23)cc(-c2ccc(OC(F)(F)F)cc2)nc1N [Compound 33] | 30 µM (≈ 11.8 µg/mL)
7 | N#Cc1c(-c2cccs2)cc(-c2ccc(OC(F)(F)F)cc2)nc1N [Compound 36] | 31 µM (≈ 11.2 µg/mL)
8 | N#Cc1c(-c2c[nH]c3ccccc23)cc(-c2ccc(OC(F)(F)F)cc2)nc1N [Compound 40] | 8 µM (≈ 3.15 µg/mL)
9 | N#CC1=C(N)OC(c2ccc(C(F)(F)F)cc2)=CC1c1ccccc1Cl (centres unmarked) [Compound 41] | 17 µM (≈ 6.41 µg/mL)
10 | N#CC1=C(N)OC(c2ccc(C(F)(F)F)cc2)=CC1c1ccc[nH]1 (centres unmarked) [Compound 50] | 16 µM (≈ 5.3 µg/mL)
11 | N#CC1=C(N)OC(c2ccc(OC(F)(F)F)cc2)=CC1c1cccc(Cl)c1Cl (centres unmarked) [Compound 51] | 16 µM (≈ 6.84 µg/mL)
12 | N#CC1=C(N)OC(c2ccc(OC(F)(F)F)cc2)=CC1c1ccc[nH]1 (centres unmarked) [Compound 60] | 16 µM (≈ 5.56 µg/mL)
13 | NC(=O)c1cnccn1 [Pyrazinamide, reference compound] | 25 µM (≈ 3.08 µg/mL)
14 | [H]/N=C(/N)N[C@H]1[C@H](O)[C@@H](O)[C@H](O[C@@H]2O[C@@H](C)[C@](O)(C=O)[C@H]2O[C@@H]2O[C@@H](CO)[C@H](O)[C@@H](O)[C@@H]2NC)[C@@H](N/C(N)=N\[H])[C@@H]1O [Streptomycin, reference compound] | 11 µM (≈ 6.4 µg/mL)

Same assay, conditions: Mycobacterium tuberculosis, H37RV, 120 h, Mycobacterium tuberculosis H37RV, MABA, Middlebrook 7H9 broth, 37°C five days; read-out: H37RV MIC

Row | SMILES | MIC
15 | O=C(O)c1cn(C2CC2)c2cc(N3CCNCC3)c(F)cc2c1=O [Ciprofloxacin, reference compound] | ~9 µM (≈ 2.98 µg/mL)
16 | O=C(/C=C/c1ccccc1Cl)c1ccc(C(F)(F)F)cc1 [Compound 1] | 40 µM (≈ 12.4 µg/mL)
17 | O=C(/C=C/c1cccc(Cl)c1)c1ccc(C(F)(F)F)cc1 [Compound 2] | 161 µM (≈ 50 µg/mL)
18 | O=C(/C=C/c1c[nH]c2ccccc12)c1ccc(C(F)(F)F)cc1 [Compound 3] | 145 µM (≈ 45.7 µg/mL)
19 | O=C(/C=C/c1ccccc1[N+](=O)[O-])c1ccc(C(F)(F)F)cc1 [Compound 4] | 156 µM (≈ 50.1 µg/mL)
20 | O=C(/C=C/c1cccc([N+](=O)[O-])c1)c1ccc(C(F)(F)F)cc1 [Compound 5] | 155 µM (≈ 49.8 µg/mL)
21 | O=C(/C=C/c1cccs1)c1ccc(C(F)(F)F)cc1 [Compound 6] | 156 µM (≈ 44 µg/mL)
22 | O=C(/C=C/c1ccc(Cl)cc1)c1ccc(C(F)(F)F)cc1 [Compound 8] | 188 µM (≈ 58.4 µg/mL)
23 | O=C(/C=C/c1ccc([N+](=O)[O-])cc1)c1ccc(C(F)(F)F)cc1 [Compound 9] | 189 µM (≈ 60.7 µg/mL)
24 | O=C(/C=C/c1ccc[nH]1)c1ccc(C(F)(F)F)cc1 [Compound 10] | 40 µM (≈ 10.6 µg/mL)
25 | O=C(/C=C/c1cccc(Cl)c1Cl)c1ccc(OC(F)(F)F)cc1 [Compound 11] | 153 µM (≈ 55.3 µg/mL)
26 | O=C(/C=C/c1cccc(Cl)c1)c1ccc(OC(F)(F)F)cc1 [Compound 12] | 153 µM (≈ 50 µg/mL)
27 | O=C(/C=C/c1c[nH]c2ccccc12)c1ccc(OC(F)(F)F)cc1 [Compound 13] | 138 µM (≈ 45.7 µg/mL)
28 | O=C(/C=C/c1ccccc1[N+](=O)[O-])c1ccc(OC(F)(F)F)cc1 [Compound 14] | 148 µM (≈ 49.9 µg/mL)
29 | O=C(/C=C/c1cccc([N+](=O)[O-])c1)c1ccc(OC(F)(F)F)cc1 [Compound 15] | 148 µM (≈ 49.9 µg/mL)
30 | O=C(/C=C/c1cccs1)c1ccc(OC(F)(F)F)cc1 [Compound 16] | 148 µM (≈ 44.1 µg/mL)
31 | O=C(/C=C/c1ccco1)c1ccc(OC(F)(F)F)cc1 [Compound 17] | 168 µM (≈ 47.4 µg/mL)
32 | O=C(/C=C/c1ccc(Cl)cc1)c1ccc(OC(F)(F)F)cc1 [Compound 18] | 177 µM (≈ 57.8 µg/mL)
33 | O=C(/C=C/c1ccc([N+](=O)[O-])cc1)c1ccc(OC(F)(F)F)cc1 [Compound 19] | 178 µM (≈ 60 µg/mL)

Row | SMILES | MIC
34 | O=C(/C=C/c1ccc[nH]1)c1ccc(OC(F)(F)F)cc1 [Compound 20] | 38 µM (≈ 10.7 µg/mL)
35 | N#Cc1c(-c2cccc(Cl)c2Cl)cc(-c2ccc(C(F)(F)F)cc2)nc1N [Compound 21] | 33 µM (≈ 13.5 µg/mL)
36 | N#Cc1c(-c2cccc(Cl)c2)cc(-c2ccc(C(F)(F)F)cc2)nc1N [Compound 22] | 134 µM (≈ 50.1 µg/mL)
37 | N#Cc1c(-c2c[nH]c3ccccc23)cc(-c2ccc(C(F)(F)F)cc2)nc1N [Compound 23] | 31 µM (≈ 11.7 µg/mL)
38 | N#Cc1c(-c2ccccc2[N+](=O)[O-])cc(-c2ccc(C(F)(F)F)cc2)nc1N [Compound 24] | 33 µM (≈ 12.7 µg/mL)
39 | N#Cc1c(-c2cccc([N+](=O)[O-])c2)cc(-c2ccc(C(F)(F)F)cc2)nc1N [Compound 25] | 130 µM (≈ 50 µg/mL)
40 | N#Cc1c(-c2ccc(Cl)cc2)cc(-c2ccc(C(F)(F)F)cc2)nc1N [Compound 28] | 38 µM (≈ 14.2 µg/mL)
41 | N#Cc1c(-c2ccc([N+](=O)[O-])cc2)cc(-c2ccc(C(F)(F)F)cc2)nc1N [Compound 29] | 152 µM (≈ 58.4 µg/mL)
42 | N#Cc1c(-c2ccc[nH]2)cc(-c2ccc(C(F)(F)F)cc2)nc1N [Compound 30] | 16 to 18 µM (≈ 5.25 to 5.91 µg/mL)
43 | N#Cc1c(-c2cccc(Cl)c2Cl)cc(-c2ccc(OC(F)(F)F)cc2)nc1N [Compound 31] | 32 µM (≈ 13.6 µg/mL)
44 | N#Cc1c(-c2cccc(Cl)c2)cc(-c2ccc(OC(F)(F)F)cc2)nc1N [Compound 32] | 128 µM (≈ 49.9 µg/mL)
45 | N#Cc1c(-c2ccccc2[N+](=O)[O-])cc(-c2ccc(OC(F)(F)F)cc2)nc1N [Compound 34] | 31 µM (≈ 12.4 µg/mL)
46 | N#Cc1c(-c2cccc([N+](=O)[O-])c2)cc(-c2ccc(OC(F)(F)F)cc2)nc1N [Compound 35] | 125 µM (≈ 50 µg/mL)
47 | N#Cc1c(-c2cccs2)cc(-c2ccc(OC(F)(F)F)cc2)nc1N [Compound 37] | 17 µM (≈ 6.14 µg/mL)
48 | N#Cc1c(-c2ccc(Cl)cc2)cc(-c2ccc(OC(F)(F)F)cc2)nc1N [Compound 38] | 36 µM (≈ 14 µg/mL)
49 | N#Cc1c(-c2ccc([N+](=O)[O-])cc2)cc(-c2ccc(OC(F)(F)F)cc2)nc1N [Compound 39] | 145 µM (≈ 58 µg/mL)
50 | N#CC1=C(N)OC(c2ccc(C(F)(F)F)cc2)=CC1c1ccccc1Cl (centres unmarked) [Compound 41] | 16 to 18 µM (≈ 6.03 to 6.78 µg/mL)
51 | N#CC1=C(N)OC(c2ccc(C(F)(F)F)cc2)=CC1c1cccc(Cl)c1 (centres unmarked) [Compound 42] | 133 µM (≈ 50.1 µg/mL)
52 | N#CC1=C(N)OC(c2ccc(C(F)(F)F)cc2)=CC1c1c[nH]c2ccccc12 (centres unmarked) [Compound 43] | 30 µM (≈ 11.4 µg/mL)

Row | SMILES | MIC
53 | N#CC1=C(N)OC(c2ccc(C(F)(F)F)cc2)=CC1c1ccccc1[N+](=O)[O-] (centres unmarked) [Compound 44] | 32 µM (≈ 12.4 µg/mL)
54 | N#CC1=C(N)OC(c2ccc(C(F)(F)F)cc2)=CC1c1cccc([N+](=O)[O-])c1 (centres unmarked) [Compound 45] | 129 µM (≈ 50 µg/mL)
55 | N#CC1=C(N)OC(c2ccc(C(F)(F)F)cc2)=CC1c1cccs1 (centres unmarked) [Compound 46] | 32 µM (≈ 11.1 µg/mL)
56 | N#CC1=C(N)OC(c2ccc(C(F)(F)F)cc2)=CC1c1ccco1 (centres unmarked) [Compound 47] | 36 µM (≈ 12 µg/mL)
57 | N#CC1=C(N)OC(c2ccc(C(F)(F)F)cc2)=CC1c1ccc(Cl)cc1 (centres unmarked) [Compound 48] | 38 µM (≈ 14.3 µg/mL)
58 | N#CC1=C(N)OC(c2ccc(C(F)(F)F)cc2)=CC1c1ccc([N+](=O)[O-])cc1 (centres unmarked) [Compound 49] | 151 µM (≈ 58.5 µg/mL)
59 | N#CC1=C(N)OC(c2ccc(C(F)(F)F)cc2)=CC1c1ccc[nH]1 (centres unmarked) [Compound 50] | 16 to 18 µM (≈ 5.3 to 5.96 µg/mL)
60 | N#CC1=C(N)OC(c2ccc(OC(F)(F)F)cc2)=CC1c1cccc(Cl)c1Cl (centres unmarked) [Compound 51] | 16 to 18 µM (≈ 6.84 to 7.69 µg/mL)
61 | N#CC1=C(N)OC(c2ccc(OC(F)(F)F)cc2)=CC1c1cccc(Cl)c1 (centres unmarked) [Compound 52] | 127 µM (≈ 49.9 µg/mL)
62 | N#CC1=C(N)OC(c2ccc(OC(F)(F)F)cc2)=CC1c1c[nH]c2ccccc12 (centres unmarked) [Compound 53] | 29 µM (≈ 11.5 µg/mL)
63 | N#CC1=C(N)OC(c2ccc(OC(F)(F)F)cc2)=CC1c1ccccc1[N+](=O)[O-] (centres unmarked) [Compound 54] | 31 µM (≈ 12.5 µg/mL)
64 | N#CC1=C(N)OC(c2ccc(OC(F)(F)F)cc2)=CC1c1cccc([N+](=O)[O-])c1 (centres unmarked) [Compound 55] | 124 µM (≈ 50 µg/mL)
65 | N#CC1=C(N)OC(c2ccc(OC(F)(F)F)cc2)=CC1c1cccs1 (centres unmarked) [Compound 56] | 31 µM (≈ 11.3 µg/mL)
66 | N#CC1=C(N)OC(c2ccc(OC(F)(F)F)cc2)=CC1c1ccco1 (centres unmarked) [Compound 57] | 34 µM (≈ 11.8 µg/mL)
67 | N#CC1=C(N)OC(c2ccc(OC(F)(F)F)cc2)=CC1c1ccc(Cl)cc1 (centres unmarked) [Compound 58] | 36 µM (≈ 14.1 µg/mL)
68 | N#CC1=C(N)OC(c2ccc(OC(F)(F)F)cc2)=CC1c1ccc([N+](=O)[O-])cc1 (centres unmarked) [Compound 59] | 144 µM (≈ 58.1 µg/mL)
69 | N#CC1=C(N)OC(c2ccc(OC(F)(F)F)cc2)=CC1c1ccc[nH]1 (centres unmarked) [Compound 60] | 16 to 18 µM (≈ 5.56 to 6.25 µg/mL)
70 | NC(=O)c1cnccn1 [Pyrazinamide, reference compound] | ~25 µM (≈ 3.08 µg/mL)
71 | [H]/N=C(/N)N[C@H]1[C@H](O)[C@@H](O)[C@H](O[C@@H]2O[C@@H](C)[C@](O)(C=O)[C@H]2O[C@@H]2O[C@@H](CO)[C@H](O)[C@@H](O)[C@@H]2NC)[C@@H](N/C(N)=N\[H])[C@@H]1O [Streptomycin, reference compound] | ~11 µM (≈ 6.4 µg/mL)

Same assay, conditions: Mycobacterium tuberculosis, H37RV, 120 h, read-out: H37RV MIC

Row | SMILES | MIC
72 | O=C(/C=C/c1ccco1)c1ccc(C(F)(F)F)cc1 [Compound 7] | 177 µM (≈ 47.1 µg/mL)

Same assay, conditions: ratio of MIC, H37RV

Row | SMILES | Potency relative to pyrazinamide
73 | N#Cc1c(-c2c[nH]c3ccccc23)cc(-c2ccc(OC(F)(F)F)cc2)nc1N [Compound 40] | 3 fold

Test system: not listed separately
Experiment: MTT cytotoxicity assay
Format: cell-based
Details: LO2 normal liver cells, human normal liver cells (L02), mean of three experiments

Row | SMILES | IC50
74 | N#Cc1c(-c2c[nH]c3ccccc23)cc(-c2ccc(OC(F)(F)F)cc2)nc1N [Compound 40] | > 70 µg/mL
